From patent US8425925B2, “Pesticidal tag” (priority 2007, dated 2013)
Where two headings read alike, the source gives them in different places.

What was measured:
[1] = test system: pyrethroid-susceptible (PY-Susceptible) horn fly (Haematobia irritans irritans) strain; format: in vivo
Experimental: (§1) A comparison of ivermectin formulations is made to determine their toxicity to horn fly (Haematobia irritans irritans) strains. Three formulations are tested: ivermectin alone, ivermectin formulated with epoxidized soybean oil (ESO), and ivermectin formulated with piperonyl butoxide (PBO). Both pyrethroid-resistant (PY-Resistant) and pyrethroid-susceptible (PY-Susceptible) horn fly strains are tested. […] See D C Sheppard & N C Hinkle, “A field procedure using disposable materials to evaluate horn fly insecticide resistance,” J. Agric. Entomol. 4:87-89 (1987).
(§2) Table 1 presents the contact toxicity results in units of μg/cm^2, computed using Log-Probit Analysis. See, e.g., V. K. Borooah, Logit and Probit (2002) (Sage Publications, Thousand Oaks, Calif., USA).
(§3) Further tests, similar to those of the Ivermectin tests described above, were performed using Abamectin compositions.

[2] = test system: pyrethroid-resistant (PY-Resistant) horn fly (Haematobia irritans irritans) strain; format: in vivo
Experimental: as §1, §2, §3

[3] = PY-Susceptible, 4-hour exposure, Log-Probit Analysis
[4] = 4-hour exposure, Log-Probit Analysis

Row | Substance | PY-Susceptible versus PY-Resitant RR50 (resistance ratio) ([1]; 8 hour contact, LC50 of PY-susceptible divided by LC50 of PY-resistant horn flies) | PY-Susceptible versus PY-Resitant RR90 (resistance ratio) ([1]; 8 hour contact, LC90 of PY-susceptible divided by LC90 of PY-resistant horn flies) | Lethal Concentrations (cell spanning LC50 and LC90) ([1]; PY-Susceptible, 2 hour contact) | Lethal Concentrations (cell spanning LC50 and LC90) ([1]; PY-Susceptible, 4 hour contact) | Lethal Concentrations LC50 ([1]; PY-Susceptible, 8 hour contact) | Lethal Concentrations LC90 ([1]; PY-Susceptible, 8 hour contact) | Lethal Concentrations (cell spanning LC50 and LC90) ([2]; 2 hour contact) | Lethal Concentrations LC50 ([2]; 4 hour contact) | Lethal Concentrations LC90 ([2]; 4 hour contact) | Lethal Concentrations LC50 ([2]; 8 hour contact) | Lethal Concentrations LC90 ([2]; 8 hour contact) | Lethal Concentration LC50 [1, 3] | Lethal Concentration LC90 [1, 3] | Lethal Concentration LC50 [2, 4] | Lethal Concentration LC90 [2, 4]
1 | Abamectin | 31.64 | 23.05 | no mortality | no mortality | 37.65 microgram/sq. cm | 175.16 microgram/sq. cm | no mortality | 138.5 microgram/sq. cm | 1,089 microgram/sq. cm | 1.19 microgram/sq. cm | 7.60 microgram/sq. cm |  |  |  | 
2 | Ivermectin |  |  |  |  |  |  |  |  |  |  |  | 165.6 μg/cm^2 | 418.3 μg/cm^2 | 93.8 μg/cm^2 | 478.0 μg/cm^2
